Data from patent US8092816B2, “Insecticidal compositions for control of general household pests” (priority 2004, dated 2012).

Columns and labels:
Assay type in all cases: in vivo
American cockroach [1] = experiment: Example 14: American cockroach knockdown and mortality, bifenthrin and clothianidin
Description: (§1) The following examples further illustrate the present invention, but, of course, should not be construed as in any way limiting its scope. The examples set forth certain biological data illustrating the efficacy of the compositions of the present invention in controlling general household pests. Each example embodies a separate test wherein the pests were randomly selected from a population at a random age. As a result, from example to example, the ages of the pests can be very different. This age difference potentially translates to different baselines for each example. Therefore, data should only be compared within the example and not from example to example due to the differences in age of the pests from example to example. Unless otherwise indicated, all parts, percentages, and the like are by weight. The spray chamber used in the examples was approximately 76 inches tall, 73 inches long and 31 inches deep with an adjustable shelf (approximately 22 inches deep) and a movable spray nozzle. The spray chambers were calibrated to deliver a volume of approximately 1 gallon of liquid per 1000 square feet of area at about 14 pounds per square inch of pressure. A DeVilbiss hand held sprayer (Atomizer model 152) manufactured by DeVilbiss located in Glendale Heights, Ill. was used in testing house flies and mosquitoes. The DeVilbiss was used to apply approximately 3-5 milliliters of product at about 10 pounds per square inch.
(§2) The compositions of the present invention were tested for American cockroach activity in the following manner:
(§3) Test compositions made up of TALSTARONE® MULTI-INSECTICIDE and a 16% a.i. water dispersible granular of clothianidin in distilled water were prepared that provided appropriate rates of application of combinations of bifenthrin and clothianidin, as well as bifenthrin and clothianidin alone.
(§4) The spray chamber was then calibrated to deliver the treatment solution at the desired volume and pressure over the desired area on the chamber shelf. Spray chamber shelf height was adjusted to approximately 18 inches from the spray tip. The shelf was then covered with aluminum foil and the center of the shelf from front-to-back and end-to-end was determined. A desired number of 4.0″ sieve circles were marked on the aluminum foil with a permanent marker. The inside of a desired number of PVC rings were coated with a petroleum jelly/mineral oil mixture (1:2 ratio). The PVC rings were place on the sieve circles. 10 male American cockroaches were placed inside each PVC ring. The sprayer was activated and the test compound was applied to each PVC ring interior. American cockroach knockdown and mortality were measured.

American cockroach [2] = experiment: Example 9: American cockroach knockdown and mortality, bifenthrin and thiamethoxam
Description: as §1, §2
(§5) Test compositions made up of TALSTARONE® MULTI-INSECTICIDE and a water dispersible granular of thiamethoxam (CENTRIC) in distilled water were prepared that provided appropriate rates of application of combinations of bifenthrin and thiamethoxam, as well as bifenthrin and thiamethoxam alone.
as §4

House Fly = experiment: Example 11: house fly knockdown and mortality, bifenthrin and thiamethoxam
Description: as §1
(§6) The compositions of the present invention were tested for house fly activity in the following manner:
as §5
(§7) A DeVilbiss hand held sprayer was used to deliver the treatment solution at the desired volume and pressure. The house flies to be treated were collected and placed in screened 16 oz paper cups. The hand held sprayer was activated and the test compound was applied to each paper cup interior. House fly knockdown and mortality were measured.

House Flies = experiment: Example 17: house fly knockdown and mortality, bifenthrin and clothianidin
Description: as §1, §6, §3, §7

Oriental cockroach = experiment: Example 4: Oriental cockroach knockdown and mortality, bifenthrin and imidacloprid
Description: as §1
The compositions of the present invention were tested for Oriental cockroach activity in the following manner:
Test compositions made up of TALSTARONE® MULTI-INSECTICIDE and a wettable powder of imidacloprid (MERIT) in distilled water were prepared that provided appropriate rates of application of combinations of bifenthrin and imidacloprid, as well as bifenthrin and imidacloprid alone.
as §4, with “Oriental” for “American”

[3] = rate of appln. 10 PPM (0.001% by weight)
[4] = rate of appln. 50 PPM (0.005% by weight)

Cc1c(COC(=O)[C@@H]2[C@H](/C=C(\Cl)C(F)(F)F)C2(C)C)cccc1-c1ccccc1 (racemic) [A, 2-methylbiphenyl-3-ylmethyl (Z)-(1RS)-cis-3-(2-chloro-3,3,3-trifluoroprop-1-enyl)-2,2-dimethylcyclopropanecarboxylate]
Knockdown Rate @ 10 minute (American cockroach [1]; [3]): 0%
Knockdown Rate @ 15 minute (American cockroach [1]; [3]): 0%
Knockdown Rate @ 30 minute (American cockroach [1]; [3]): 0%
Mortality Rate @ 60 minute (American cockroach [1]; [3]): 0%
Mortality Rate @ 120 minutes (American cockroach [1]; [3]): 0%
Mortality Rate @ 4 hours (American cockroach [1]; [3]): 0%
Mortality Rate @ 1 day (American cockroach [1]; [3]): 10%
Mortality Rate @ 2 days (American cockroach [1]; [3]): 30%
Knockdown Rate @ 10 minute (American cockroach [1]; [4]): 5%
Knockdown Rate @ 15 minute (American cockroach [1]; [4]): 10%
Knockdown Rate @ 30 minute (American cockroach [1]; [4]): 5%
Mortality Rate @ 60 minute (American cockroach [1]; [4]): 0%
Mortality Rate @ 120 minutes (American cockroach [1]; [4]): 0%
Mortality Rate @ 4 hours (American cockroach [1]; [4]): 35%
Mortality Rate @ 1 day (American cockroach [1]; [4]): 40%
Mortality Rate @ 2 days (American cockroach [1]; [4]): 55%
Knockdown Rate @ 15 minute (American cockroach [2]; 10 PPM, 0.001% by weight): 0%
Knockdown Rate @ 30 minute (American cockroach [2]; 10 PPM, 0.001% by weight): 0%
Mortality Rate @ 60 minutes (American cockroach [2]; 10 PPM, 0.001% by weight): 0%
Mortality Rate @ 120 minutes (American cockroach [2]; 10 PPM, 0.001% by weight): 0%
Mortality Rate @ 4 hours (American cockroach [2]; 10 PPM, 0.001% by weight): 0%
Mortality Rate @ 1 day (American cockroach [2]; 10 PPM, 0.001% by weight): 5%
Knockdown Rate @ 15 minute (American cockroach [2]; 50 PPM, 0.005% by weight): 0%
Knockdown Rate @ 30 minute (American cockroach [2]; 50 PPM, 0.005% by weight): 0%
Mortality Rate @ 60 minutes (American cockroach [2]; 50 PPM, 0.005% by weight): 0%
Mortality Rate @ 120 minutes (American cockroach [2]; 50 PPM, 0.005% by weight): 0%
Mortality Rate @ 4 hours (American cockroach [2]; 50 PPM, 0.005% by weight): 0%
Mortality Rate @ 1 day (American cockroach [2]; 50 PPM, 0.005% by weight): 30%
Knockdown Rate @ 15 minute (House Fly; A 10 PPM, 0.001% by weight): 0%
Knockdown Rate @ 30 minute (House Fly; A 10 PPM, 0.001% by weight): 0%
Knockdown Rate @ 45 minutes (House Fly; A 10 PPM, 0.001% by weight): 6%
Knockdown Rate @ 60 minutes (House Fly; A 10 PPM, 0.001% by weight): 19%
Knockdown Rate @ 120 minutes (House Fly; A 10 PPM, 0.001% by weight): 19%
Knockdown Rate @ 4 hours (House Fly; A 10 PPM, 0.001% by weight): 48%
Mortality Rate @ 1 day (House Fly; A 10 PPM, 0.001% by weight): 3%
Knockdown Rate @ 15 minute (House Fly; A 50 PPM, 0.005% by weight): 0%
Knockdown Rate @ 30 minute (House Fly; A 50 PPM, 0.005% by weight): 19%
Knockdown Rate @ 45 minutes (House Fly; A 50 PPM, 0.005% by weight): 47%
Knockdown Rate @ 60 minutes (House Fly; A 50 PPM, 0.005% by weight): 59%
Knockdown Rate @ 120 minutes (House Fly; A 50 PPM, 0.005% by weight): 63%
Knockdown Rate @ 4 hours (House Fly; A 50 PPM, 0.005% by weight): 100%
Mortality Rate @ 1 day (House Fly; A 50 PPM, 0.005% by weight): 63%
Knockdown Rate @ 15 minute (House Flies; [3]): 0%
Knockdown Rate @ 30 minute (House Flies; [3]): 0%
Knockdown Rate @ 45 minutes (House Flies; [3]): 0%
Knockdown Rate @ 60 minutes (House Flies; [3]): 0%
Knockdown Rate @ 120 minutes (House Flies; [3]): 3%
Knockdown Rate @ 180 minutes (House Flies; [3]): 3%
Knockdown Rate @ 4 hours (House Flies; [3]): 3%
Mortality Rate @ 1 day (House Flies; [3]): 3%
Knockdown Rate @ 15 minute (House Flies; [4]): 3%
Knockdown Rate @ 30 minute (House Flies; [4]): 55%
Knockdown Rate @ 45 minutes (House Flies; [4]): 66%
Knockdown Rate @ 60 minutes (House Flies; [4]): 68%
Knockdown Rate @ 120 minutes (House Flies; [4]): 74%
Knockdown Rate @ 180 minutes (House Flies; [4]): 74%
Knockdown Rate @ 4 hours (House Flies; [4]): 76%
Mortality Rate @ 1 day (House Flies; [4]): 79%
Knockdown Rate @ 15 minute (Oriental cockroach; 10 PPM, 0.001% by weight): 0%
Knockdown Rate @ 30 minute (Oriental cockroach; 10 PPM, 0.001% by weight): 0%
Mortality Rate @ 60 minute (Oriental cockroach; 10 PPM, 0.001% by weight): 0%
Mortality Rate @ 120 minute (Oriental cockroach; 10 PPM, 0.001% by weight): 0%
Mortality Rate @ 4 hours (Oriental cockroach; 10 PPM, 0.001% by weight): 0%
Mortality Rate @ 1 day (Oriental cockroach; 10 PPM, 0.001% by weight): 15%
Mortality Rate @ 2 days (Oriental cockroach; 10 PPM, 0.001% by weight): 15%
Knockdown Rate @ 15 minute (Oriental cockroach; 50 PPM, 0.005% by weight): 0%
Knockdown Rate @ 30 minute (Oriental cockroach; 50 PPM, 0.005% by weight): 0%
Mortality Rate @ 60 minute (Oriental cockroach; 50 PPM, 0.005% by weight): 5%
Mortality Rate @ 120 minute (Oriental cockroach; 50 PPM, 0.005% by weight): 5%
Mortality Rate @ 4 hours (Oriental cockroach; 50 PPM, 0.005% by weight): 30%
Mortality Rate @ 1 day (Oriental cockroach; 50 PPM, 0.005% by weight): 70%
Mortality Rate @ 2 days (Oriental cockroach; 50 PPM, 0.005% by weight): 70%
